Test results taken from PMC10460054, “Multiplex Quantitative Analysis of 9 Compounds of Scutellaria baicalensis Georgi in the Plasma of Respiratory Syncytial Virus-Infected Mice Based on HPLC-MS/MS and Pharmacodynamic Effect Correlation Analysis” (Molecules, 2023).

Assays:
[1] = HPLC-MS/MS quantification of 9 compounds in plasma of RSV-infected mice after Scutellaria baicalensis Georgi administration; assay type: in vivo, BALB/c mice
Procedure: The study employed a Vanquish high-performance liquid chromatograph for chromatographic separation, with a HALO C18 column (2.1 × 100 mm, 2.7 μm) as the chromatographic column.
Mass spectrometry was performed using a quadrupole-electrostatic field orbitrap desktop mass spectrometer equipped with an electrospray ion source (ESI). The ESI parameters were set as follows: the pyrolysis voltage was 3.0 kV, the auxiliary gas flow rate was 10 mL/min, the ion transport tube temperature was 350 °C, the auxiliary gas temperature was 350 °C, and the sheath gas flow rate was 45 L/min. Quantitative analysis was performed using the selective ion detection (SIM) mode (Table S1).
Male BALB/c mice, aged 2 weeks and weighing 10–12 g, were chosen for this study. They were acclimatized for 2 days and then randomly assigned to one of five groups: blank (C), model (M), positive control ribavirin (Y1), positive control lianhua qingwen granules (Y2), and Scutellaria baicalensis Georgi administration (H1-H12). Each group consisted of six mice, and their weights were recorded. The mice were pre-administered for 2 days, and on the third day, RSV virus (TCID50 = 10^−6) was inoculated through intranasal infection at a volume of 35 μL per mouse. The blank group was inoculated with normal saline of the same volume. After the inoculation of the RSV virus, the blank and model groups were given distilled water by gavage, while the drug-administered groups were given an aqueous extract of Scutellaria baicalensis Georgi (10 µL/g) once a day for 3 days. The mice were observed daily for their mental status, hair color, diet, and body weight. […] It was then centrifuged at 3000 r/min for 10 min, and the upper layer of plasma was stored at −80℃. Lung tissues were weighed, the lung index was calculated, and the lung tissues were stored in the refrigerator at −80 °C for freezing.
The plasma sample (200 μL) was processed in a 5 mL tube. Subsequently, 10 μL of 5% formic acid and 20 μL of 2 mol/L hydrochloric acid were added, followed by vortexing for 1 min with 10 μL of internal standard solution (100 ng/mL tinidazole). The extraction was completed by adding 2000 μL of acetonitrile solvent and vortexing for 2 min. The mixture was then centrifuged at 12,000 r/min at 4 °C for 10 min, and the supernatant solution was collected in a new centrifuge tube. The supernatant solution was dried by nitrogen at room temperature before being redissolved in 50 μL of 70% acetonitrile solution containing 0.1% formic acid. After vortexing for 1 min, the solution was centrifuged at 12,000 r/min at 4 °C for 10 min, and the resulting supernatant was injected for analysis. The injection volume was 3 μL.
The drug-containing plasma at different time points was subjected to sample treatment. The HPLC-MS/MS analysis method was used to quantitatively detect the 9 compounds in the ion detection (SIM) mode. According to the relative peak area value = index peak area/internal standard peak area, the corresponding concentration value was calculated by substituting the standard curve of each component.

[2] = Stability of 9 compounds in mouse plasma under storage conditions; assay type: in vitro ADME; details: n = 6; for Stability 3-Freeze-Thaw Cycles RE: 3 times repeated freeze-thaw at −80 °C; for Stability Short-Term RE: 12 h at 4 °C; for Stability Long-Term RE: −20 °C for 20 days
[3] = male, BALB/c, mouse, in vivo, 0.083 h
[4] = male, BALB/c, mouse, in vivo, 0.167 h
[5] = male, BALB/c, mouse, in vivo, 0.25 h
[6] = male, BALB/c, mouse, in vivo, 0.5 h
[7] = male, BALB/c, mouse, in vivo, 1 h
[8] = male, BALB/c, mouse, in vivo, 2 h
[9] = male, BALB/c, mouse, in vivo, 4 h
[10] = male, BALB/c, mouse, in vivo, 6 h
[11] = male, BALB/c, mouse, in vivo, 8 h
[12] = male, BALB/c, mouse, in vivo, 10 h
[13] = male, BALB/c, mouse, in vivo, 12 h
[14] = male, BALB/c, mouse, in vivo, 24 h
[15] = high QC (20,000 or 10,000 ng/mL)
[16] = RSV-infected mice after Scutellaria baicalensis Georgi administration, double peak phenomenon

O=C(O)[C@H]1O[C@@H](Oc2cc(O)c3c(=O)cc(-c4ccc(O)cc4)oc3c2)[C@H](O)[C@@H](O)[C@@H]1O [Apigenin-7-glucuronide]
time of highest plasma concentration, first peak ([1]; male, BALB/c, mouse, in vivo): 0.167 h | time of highest plasma concentration, second peak ([1]; male, BALB/c, mouse, in vivo): 6 h | drug-containing plasma content [1, 3]: 4725.60± 214.70 | drug-containing plasma content [1, 4]: 6986.86± 153.57 | drug-containing plasma content [1, 5]: 4610.60± 192.08 | drug-containing plasma content [1, 6]: 4344.98± 173.73 | drug-containing plasma content [1, 7]: 1590.11± 125.69 | drug-containing plasma content [1, 8]: 2934.42± 221.23 | drug-containing plasma content [1, 9]: 1037.07± 106.48 | drug-containing plasma content [1, 10]: 9344.98± 327.73 | drug-containing plasma content [1, 11]: 2958.20± 207.61 | drug-containing plasma content [1, 12]: 896.04± 55.63 | drug-containing plasma content [1, 13]: 47.32± 11.82 | drug-containing plasma content [1, 14]: 23.55± 2.60 | Stability 3-Freeze-Thaw Cycles RE [2, 15]: 8.37% | Stability 3-Freeze-Thaw Cycles RE ([2]; low QC (12.5 or 25.6 ng/mL)): −2.43% | Stability 3-Freeze-Thaw Cycles RE ([2]; medium QC (320 or 160 ng/mL)): −0.72% | Stability Short-Term RE [2, 15]: 8.60% | Stability Short-Term RE ([2]; low QC (12.5 or 25.6 ng/mL)): −3.20% | Stability Short-Term RE ([2]; medium QC (320 or 160 ng/mL)): −2.08% | Stability Long-Term RE [2, 15]: 9.80% | Stability Long-Term RE ([2]; low QC (12.5 or 25.6 ng/mL)): −3.16% | Stability Long-Term RE ([2]; medium QC (320 or 160 ng/mL)): −1.48%

O=c1cc(-c2ccccc2)oc2cc(O)c(O)c(O)c12 [Baicalein]
time of highest plasma concentration, first peak [1, 16]: 0.167 h | time of highest plasma concentration, second peak [1, 16]: 6 h | drug-containing plasma content [1, 3]: 235.76± 21.97 | drug-containing plasma content [1, 4]: 573.93± 23.68 | drug-containing plasma content [1, 5]: 437.59± 15.17 | drug-containing plasma content [1, 6]: 243.84± 16.32 | drug-containing plasma content [1, 7]: 208.98± 14.58 | drug-containing plasma content [1, 8]: 25.73± 5.59 | drug-containing plasma content [1, 9]: 43.00± 8.66 | drug-containing plasma content [1, 10]: 792.15± 41.3 | drug-containing plasma content [1, 11]: 184.80± 29.24 | drug-containing plasma content [1, 12]: 120.93± 15.03 | drug-containing plasma content [1, 13]: 9.28± 5.01 | drug-containing plasma content [1, 14]: 1.42± 5.86

O=C(O)[C@H]1O[C@@H](Oc2cc3oc(-c4ccccc4)cc(=O)c3c(O)c2O)[C@H](O)[C@@H](O)[C@@H]1O [Baicalin]
time of highest plasma concentration, first peak [1, 16]: 0.167 h | time of highest plasma concentration, second peak [1, 16]: 6 h | drug-containing plasma content [1, 3]: 2434.28± 151.56 | drug-containing plasma content [1, 4]: 4607.45± 318.09 | drug-containing plasma content [1, 5]: 2031.56± 103.57 | drug-containing plasma content [1, 6]: 2696.64± 110.33 | drug-containing plasma content [1, 7]: 2474.37± 225.92 | drug-containing plasma content [1, 8]: 2620.76± 117.82 | drug-containing plasma content [1, 9]: 1587.10± 169.68 | drug-containing plasma content [1, 10]: 8607.45± 428.09 | drug-containing plasma content [1, 11]: 1856.98± 113.03 | drug-containing plasma content [1, 12]: 569.32± 20.22 | drug-containing plasma content [1, 13]: 39.89± 7.45 | drug-containing plasma content [1, 14]: 15.44± 5.62 | Stability 3-Freeze-Thaw Cycles RE [2, 15]: 7.69% | Stability 3-Freeze-Thaw Cycles RE ([2]; low QC (12.5 or 25.6 ng/mL)): −7.38% | Stability 3-Freeze-Thaw Cycles RE ([2]; medium QC (320 or 160 ng/mL)): −2.37% | Stability Short-Term RE [2, 15]: 5.73% | Stability Short-Term RE ([2]; low QC (12.5 or 25.6 ng/mL)): −9.16% | Stability Short-Term RE ([2]; medium QC (320 or 160 ng/mL)): −5.85% | Stability Long-Term RE [2, 15]: 5.87% | Stability Long-Term RE ([2]; low QC (12.5 or 25.6 ng/mL)): −8.15% | Stability Long-Term RE ([2]; medium QC (320 or 160 ng/mL)): −5.21%
